From EP1855705B1, “ANTIBIOTIC 107891, ITS FACTORS, PHARMACEUTICALLY ACCEPTABLE SALTS AND COMPOSITIONS, AND USE THEREOF” (Sentinella Pharmaceuticals, Inc. ("Sentinella"), priority 2005, dated 2006)
In brackets after ≈: the same amount, converted by molar mass.

Assays:
Enterococcus faecium = assay: MIC, broth microdilution method (NCCLS M7-A5); assay type: cell-based; conditions: 568 Enterococcus faecium cl.isol.

Structure (SMILES)	MIC (Staph. haemolyticus)	MIC (Enterococcus faecium) [µg/mL]
C=C1NC(=O)C(Cc2c[nH]c3ccc(Cl)cc23)NC(=O)C(NC(=O)C(=CC)NC(=O)C(N)C(C)C)CSCC(C(=O)NC2C(=O)N3CCCC3C(=O)NCC(=O)NC(C(=O)NC(C(=O)NC3CSCC4NC(=O)C(CC(N)=O)NC(=O)C(CSCC5NC(=O)C(Cc6ccccc6)NC(=O)C(CS/C=C\NC5=O)NC4=O)NC(=O)CNC(=O)CNC(=O)CNC(=O)C4CC(O)CN4C3=O)C(C)O)CSC2C)NC(=O)C(CC(C)C)NC1=O (stereo not drawn) [Factor A2]	0,25 µg/ml	2 (≈ 0.896 µM)
C=C1NC(=O)C(Cc2c[nH]c3ccc(Cl)cc23)NC(=O)C(NC(=O)C(=CC)NC(=O)C(N)C(C)C)CSCC(C(=O)NC2C(=O)N3CCCC3C(=O)NCC(=O)NC(C(=O)NC(C(=O)NC3CSCC4NC(=O)C(CC(N)=O)NC(=O)C(CSCC5NC(=O)C(Cc6ccccc6)NC(=O)C(CS/C=C\NC5=O)NC4=O)NC(=O)CNC(=O)CNC(=O)CNC(=O)C4C(O)C(O)CN4C3=O)C(C)O)CSC2C)NC(=O)C(CC(C)C)NC1=O (stereo not drawn) [Factor A1]	0,25 µg/ml	–
